The results in this text go back to EPA's ToxValDB 9.5.

In general, LOAEL refers to the lowest tested level that showed an adverse finding. What is called NOAEL is the highest dose or exposure tested at which no adverse effect was seen.

Series [1] concerns Canidae. As to conditions: oral, Dog Other.
For series [2], the system named is Rattus norvegicus. As to conditions: for LOEL / NOEL: Hershberger; for LEL: uterotrophic, Active.
Series [3] has as its system Rattus norvegicus. As to conditions: developmental; oral; gavage; M; Sprague-Dawley; generation: F1; F1: Testosterone (Testes).
For series [4], the system named is Rattus norvegicus. As to conditions: oral; for NOEL: gavage, M/F.
In series [5] the test system is Rattus norvegicus. As to conditions: chronic, duration: 2 years, oral, diet, M/F.
The mark [6] stands for this setting: chronic, duration: 1 years, diet, M/F, decreased prostate weight + Increased RBC Heinz bodies.
Where [7] appears, read: subchronic, duration: 90 days, diet, M/F, sedation and tonoclonic spasms reduced food intake and body weight hematological effects.
Where [8] appears, read: duration: 5 days, oral, gavage, Sprague-Dawley, active + Androgenic + androgenic + advanced age of PPS, histopathology effects on reproductive tissues.
[9] abbreviates: duration: 3 days, injection, subcutaneous.
Where [10] appears, read: duration: 10 days, injection, subcutaneous, Wistar, active + Androgenic + androgenic.
[11] abbreviates: duration: 10 days, oral, gavage, Sprague-Dawley, active + Antiandrogenic + anti-androgenic.
[12] abbreviates: chronic, duration: 2 years, diet, M/F, liver toxicity.
Setting [13] is: chronic, duration: 1 years, diet, M/F, tremors.
Where [14] appears, read: chronic, duration: 1 years, diet, M/F, hypertrophy of adrenal cortex (both sexes) hematological effects (males).
The mark [15] stands for this setting: chronic, duration: 26 weeks, diet, M/F, increased organ weight.
The mark [16] stands for this setting: subchronic, M, increased sgot and sgpt levels.
The mark [17] stands for this setting: chronic, duration: 2 years, diet, M/F, liver and kidney effects, reduced body weight, mortality.
The mark [18] stands for this setting: duration: 10 days, oral, gavage, Sprague-Dawley, inactive + Negative + Negative + neither + negative.
[19] abbreviates: chronic, duration: 1 years, diet, M/F, chronic pneumonitis.
Where [20] appears, read: chronic, duration: 106 weeks, diet, M/F, liver and kidney degeneration and bone marrow atrophy.
[21] abbreviates: reduced body weight gain, erythrocyte count and hemoglobin level.

Several values for one entry are separate records, joined by “and”; a condition that tells them apart may be missing. Identical values can stand only once.

Regarding `CC(C)NC(=O)N1CC(=O)N(c2cc(Cl)cc(Cl)c2)C1=O`, in series [1] (setting [6]), the LEL worked out at 15 mg/kg-day and the NOEL stood at 4.2 mg/kg-day.

Turning to `C[N+]1(C)CCCCC1.[Cl-]` [1,1-Dimethylpiperidinium chloride], in series [1] (setting [7]), the LEL was 75 mg/kg-day and the NOEL came to 25 mg/kg-day.

As to `C[C@]12CCC(=O)C=C1CC[C@@H]1[C@@H]2CC[C@@]2(C)[C@H]1CC[C@]2(C)O` [17-Methyltestosterone], the LOEL was 80 mg/kg-day and 100 mg/kg-day in series [2] (setting [8]); 0.16 mg/kg-day in series [2] (duration: 7 days, injection, subcutaneous, Sprague-Dawley, androgenic). The NOEL in series [2] (setting [8]) came to 20 mg/kg-day. The LEL in series [2] (setting [9]) worked out at 10 mg/kg-day; in series [2] (duration: 4 days, injection, subcutaneous), 0.5 mg/kg-day; in series [2] (duration: 14 days, oral), 3 mg.

On to `CC[C@@H](C(C)C)[C@@H](O)[C@H](O)[C@@H](C)[C@H]1CC[C@H]2[C@@H]3COC(=O)[C@H]4C[C@H](O)[C@H](O)C[C@]4(C)[C@H]3CC[C@]12C` [28-Homobrassinolide], for which, in series [2] (setting [10]), the LOEL turned out to be 4 mg/kg-day and the NOEL came out at 0.4 mg/kg-day.

`CC/C(=C(\c1ccc(O)cc1)c1ccc(OCCN(C)C)cc1)c1ccccc1` [(Z)-4-Hydroxytamoxifen] returned an LEL in series [2] (setting [9]) of 0.00016 mg/day.

With `c1ccc2cc3c(ccc4ccccc43)cc2c1` [Benz(a)anthracene], the LEL in series [2] (setting [9]) stood at 1 mg/kg-day.

As to `CC(C)CCCCCCOC(=O)c1ccccc1C(=O)OCCCCCCC(C)C` [Diisononyl phthalate], in series [2] (setting [11]), the LOEL was 500 mg/kg-day and the NOEL turned out to be 100 mg/kg-day. Also, the NOEL in series [3] was found to be 750 mg/kg-day.

In the case of `CN(C)C(=O)C(c1ccccc1)c1ccccc1` [Diphenamid], in series [1] (setting [12]), the LEL turned out to be 10 mg/kg-day and the NOEL amounted to 3 mg/kg-day.

In series [1] (setting [13]), `CC1(C)C(C(=O)OC(C#N)c2cccc(Oc3ccccc3)c2)C1(C)C` (stereo not drawn) [Fenpropathrin] gave an LOAEL of 6.25 mg/kg-day and a no observed adverse effect level (NOAEL) of 2.5 mg/kg-day.

In the case of `COP(=S)(OC)Oc1ccc(SC)c(C)c1` [Fenthion], the LOEL in series [2] (duration: 7 days, oral, gavage, Fischer 344, active + Antiandrogenic + anti-androgenic) was 25 mg/kg-day.

In series [1] (setting [14]), `C[C@H]1[C@H](c2ccc(Cl)cc2)SC(=O)N1C(=O)NC1CCCCC1` [Hexythiazox] yielded an LEL of 12.5 mg/kg-day and an NOEL of 2.5 mg/kg-day.

On to `CC1(C)CN=C(NN=C(C=Cc2ccc(C(F)(F)F)cc2)C=Cc2ccc(C(F)(F)F)cc2)NC1` [Hydramethylnon], for which, in series [1] (setting [15]), the LEL turned out to be 1 mg/kg-day and the NOEL came to 0.33 mg/kg-day.

For `C=C(C)C#N` [Methacrylonitrile], the NOEL in series [4] (subchronic, Fischer 344, Deaths + Clinical Observation: Lethargy Lacrimation, tremors Convulsions Ataxia Abnormalbreathing + Body Weight Changes: decrease + …) is below 7.5 mg/kg-day. In series [1] (setting [16]), this compound displayed an LOAEL of 24 mg/m3 and a no observed adverse effect level (NOAEL) of 9 mg/m3.

In series [1] (setting [17]), `CSc1nnc(C(C)(C)C)c(=O)n1N` [Metribuzin] came in with an LEL of 37.5 mg/kg-day and an NOEL of 2.5 mg/kg-day. Moreover, the NOEL in series [2] (setting [18]) was 120 mg/kg-day.

Consider `CCCCC(C#N)(Cn1cncn1)c1ccc(Cl)cc1` (stereo not drawn) [Myclobutanil], for which, in series [5] (testicular atrophy), the LEL was found to be 9.84 mg/kg-day and the NOEL amounted to 2.49 mg/kg-day. For the same compound, the NOEL in series [2] (duration: 10 days, oral, gavage, Sprague-Dawley, inactive + Negative + Negative + anti-androgenic + decrease in AST wt at 200 and serum testosterone 49% / increase in PPS at 400 and serum …) turned out to be 50 mg/kg-day.

In series [1] (setting [19]), `C[n+]1ccc(-c2cc[n+](C)cc2)cc1` [Paraquat] registered an LEL of 0.93 mg/kg-day and an NOEL of 0.45 mg/kg-day.

In series [1] (setting [20]), `CSc1nc(NC(C)C)nc(NC(C)C)n1` [Prometryn] gave an LEL of 37.5 mg/kg-day and an NOEL of 3.75 mg/kg-day.

For the compound `CCCOC(=O)c1ccc(O)cc1` [Propylparaben], the LEL in series [2] (setting [9]) came to 65 mg/kg-day.

Take `CC(C)(C)C(=O)C(Oc1ccc(Cl)cc1)n1cncn1` (stereo not drawn) [Triadimefon]: in series [5] (setting [21]), the LEL is 25 mg/kg-day. Also, the NOEL in series [5] (setting [21]) is 2.5 mg/kg-day; in series [2] (duration: 10 days, oral, gavage, Sprague-Dawley, inactive + Negative + Negative + both + decreased AGD, delayed PPS, decreased AST wt / inhibits CYP17 / increases liver wt 37% and …), 25 mg/kg-day.

In the case of `CCC[CH2][Sn]([Cl])([CH2]CCC)[CH2]CCC` [Tributyltin chloride], the NOAEL in series [4] (short-term, duration: 28 days, diet, M, Wistar, Body Weight Changes: Weight gain decrease + Food Consumption: decrease + Absolute Organ Weight: Thymus decrease + Relative Organ Weight: …) stood at 5 ppm. In series [2] (duration: 0 days, oral, diet), this compound returned an LEL of 125 ppm.

On to `COP(=O)(OC)O/C(=C\Cl)c1cc(Cl)c(Cl)cc1Cl` [Z-Tetrachlorvinphos], for which the NOEL in series [4] (short-term, duration: 28 days, Wistar, Deaths + Clinical Observation: Soiled perineal region + Body Weight Changes: decrease + Blood Chemistry: AST decrease, gamma-GTP increase, …) was below 10 mg/kg-day; in series [4] (short-term, duration: 28 days, Wistar, Deaths + Clinical Observation: Soiled perineal region + Body Weight Changes: decrease + Hematology: RBC decrease, HGB decrease, HCT decrease…), below 10 mg/kg-day; in series [2] (setting [18]) it was 350 mg/kg-day.
